Source: ChEMBL document CHEMBL6182910, “Design, Synthesis, and Biological Evaluation of 4-(Difluoromethyl)-1H-imidazole-5-carboxylic Acids/4-(3-Cyanophenoxy)pyrimidine-5-carboxylic Acids as P2Y1 Receptor Antagonists for Ischemic Stroke Treatment” (J Med Chem, 2025)
Active and inactive are the calls of the source. The calls are words filed in the database; no cut-off is given here.

Columns and labels:
[1] = AUC in brain of male Sprague-Dawley rat at 10 mg/kg, iv measured for 0.083 to 24 hrs by LC-MS/MS analysis; assay type: ADME, organism-based; conditions: in vivo, time 0.083-24 hrs
[2] = target: P2Y purinoceptor 1 (Rattus norvegicus) (UniProt P49651); experiment: Induction of thermal stabilization of P2Y1 receptor in rat platelet-rich plasma at 10 uM incubated for 30 mins followed by heat exposure at 48 to 62 degreeC for 10 mins by CETSA; assay type: cell-free; conditions: time 40.0 min
[3] = AUC in plasma of male Kunming mouse at 10 mg/kg, iv measured for 0.083 to 24 hrs by LC-MS/MS analysis; assay type: ADME, organism-based; conditions: time 0.083-24 hrs
[4] = Half life male Sprague-Dawley rat at 10 mg/kg, iv measured up to 24 hrs by LC-MS/MS analysis; assay type: ADME, organism-based; conditions: in vivo
[5] = tested on: Rattus norvegicus; experiment: Neuroprotective activity in MCAO-induced brain damage Sprague-Dawley rat model assessed as improvement in motor co-ordination administered intravenously immediately after arterial occlusion measured after 24 hrs by Longa's method; assay type: functional, organism-based; conditions: dose 2.5-10 mg/kg, route iv
[6] = tested on: Rattus norvegicus; experiment: Neuroprotective activity in MCAO-induced brain damage Sprague-Dawley rat model assessed as clear nucleoli with uniform staining at 2.5 to 10 mg/kg, iv administered immediately after arterial occlusion measured after 24 hrs by H and E staining based analysis; assay type: functional, organism-based; conditions: dose 2.5-10 mg/kg
[7] = tested on: Rattus norvegicus; experiment: Anti-platelet aggregation in Sprague-Dawley rat assessed as inhibition of ADP-induced platelet aggregation at 10 mg/kg, po measured for 15 mins in presence of 2.5 uM ADP by cell counter analysis relative to control; assay type: functional; conditions: 0.25 h
[8] = tested on: Rattus norvegicus; experiment: Neuroprotective activity in MCAO-induced brain damage Sprague-Dawley rat model assessed as reduction in neurological damage administered intravenously immediately after arterial occlusion measured after 24 hrs by Longa's method; assay type: functional, organism-based; conditions: dose 2.5-10 mg/kg, route iv
[9] = tested on: Rattus norvegicus; experiment: Neuroprotective activity in MCAO-induced brain damage Sprague-Dawley rat model assessed as brain infarction size at 2.5 mg/kg, iv administered immediately after arterial occlusion measured after 24 hrs by TTC staining based analysis (reference value: 43.1 %); assay type: functional
[10] = tested on: HT-22; experiment: Neuroprotective activity against H2O2-induced oxidative stress in mouse HT-22 cells assessed as increase in nuclear Nrf2 level at 10 uM preincubated for 2 hrs followed by H2O2 addition measured after 16 hrs by Western blot analysis; assay type: functional, cell-based; conditions: time 18.0 hrs
[11] = Oral bioavailability male Sprague-Dawley rat at 10 mg/kg measured up to 24 hrs by LC-MS/MS analysis; assay type: ADME, organism-based; conditions: in vivo
[12] = Clearance male Sprague-Dawley rat at 10 mg/kg, iv measured up to 24 hrs by LC-MS/MS analysis; assay type: ADME, organism-based; conditions: in vivo
[13] = target: P2Y purinoceptor 1 (Rattus norvegicus, UniProt P49651); experiment: Antagonist activity at P2Y1 receptor in platelet-rich plasma of rat assessed as inhibition of ADP-induced cytosolic Ca2+ level pretreated for 5 mins followed by ADP addition by FLUO-4 AM dye based analysis; assay type: functional, cell-free
[14] = Clearance male Sprague-Dawley rat at 10 mg/kg, po measured up to 24 hrs by LC-MS/MS analysis; assay type: ADME, organism-based; conditions: in vivo
[15] = tested on: Rattus norvegicus; experiment: Neuroprotective activity in MCAO-induced brain damage Sprague-Dawley rat model assessed as reduction in brain infarction size at 5 mg/kg, iv administered immediately after arterial occlusion measured after 24 hrs by TTC staining based analysis relative to control; assay type: functional; set-up: scale not given: the % may be the effect or the level left
[16] = AUC (0 to infinity) male Sprague-Dawley rat at 10 mg/kg, po measured up to 24 hrs by LC-MS/MS analysis; assay type: ADME, organism-based; conditions: in vivo
[17] = tested on: Rattus norvegicus; experiment: Neuroprotective activity in MCAO-induced brain damage Sprague-Dawley rat model assessed as plasma MDA level at 2.5 to 10 mg/kg, iv administered immediately after arterial occlusion measured after 24 hrs (reference value: 51.7 %); assay type: functional; conditions: dose 2.5-10 mg/kg
[18] = tested on: Rattus norvegicus; experiment: Neuroprotective activity in MCAO-induced brain damage Sprague-Dawley rat model assessed as plasma GSH-px level at 2.5 to 10 mg/kg, iv administered immediately after arterial occlusion measured after 24 hrs; assay type: functional; conditions: dose 2.5-10 mg/kg
[19] = Antagonist activity at P2Y1 receptor in platelet-rich plasma of male Japanese white rabbit assessed as inhibition of ADP-induced cytosolic Ca2+ level pretreated for 5 mins followed by ADP addition by FLUO-4 AM dye based analysis; assay type: cell-free; conditions: Oryctolagus cuniculus
[20] = AUC in brain of male Kunming mouse at 10 mg/kg, iv measured for 0.083 to 24 hrs by LC-MS/MS analysis; assay type: ADME, organism-based; conditions: in vivo, time 0.083-24 hrs
[21] = tested on: Rattus norvegicus; experiment: Anti-platelet aggregation in Sprague-Dawley rat assessed as inhibition of ADP-induced platelet aggregation at 10 mg/kg, po measured for 15 mins in presence of 10 uM ADP by cell counter analysis relative to control; assay type: functional; conditions: 0.25 h
[22] = Apparent volume of distribution male Sprague-Dawley rat at 10 mg/kg, iv measured up to 24 hrs by LC-MS/MS analysis; assay type: ADME, organism-based; conditions: in vivo, read-out: Vz
[23] = Metabolic stability in rat liver microsomes assessed as parent compound remaining at 1 uM measured after 3 hrs in presence of NADPH by LC-MS/MS analysis; assay type: ADME, Microsome; conditions: read-out: Stability
[24] = target: CYP3A4 (Homo sapiens, UniProt P08684); experiment: Inhibition of CYP3A4 in human liver microsomes using nifedipine as substrate at 10 uM preincubated for 5 min followed by NADPH addition measured after 120 mins by LC-MS/MS analysis relative to control; assay type: ADME, Microsome; conditions: probe nifedipine, time 125 min
[25] = tested on: Rattus norvegicus; experiment: Neuroprotective activity in MCAO-induced brain damage Sprague-Dawley rat model assessed as improvement in hippocampal neuron damage administered intravenously immediately after arterial occlusion measured after 24 hrs by H and E staining based analysis; assay type: functional, organism-based; conditions: dose 2.5-10 mg/kg, route iv
[26] = tested on: Plasma; experiment: Anti-platelet aggregation in platelet-rich plasma of male human assessed as inhibition of ADP-induced platelet aggregation preincubated for 15 mins followed by ADP addition measured up to 10 mins by Born's turbidometric method; assay type: functional, cell-free
[27] = target: P2Y purinoceptor 12 (Rattus norvegicus) (UniProt Q9EPX4); experiment: Antagonist activity at P2Y12 receptor in platelet-rich plasma of male Sprague-Dawley rat assessed as inhibition of VASP phosphorylation at Ser239 at 30 uM pretreated for 10 mins followed by PGE1/ADP addition measured after 10 mins by ELISA relative to control; assay type: cell-free; conditions: time 20.0 min
[28] = Ratio of AUC in brain to plasma of male Kunming mouse at 10 mg/kg, iv measured for 0.083 to 24 hrs by LC-MS/MS analysis; assay type: ADME, organism-based; conditions: brain and plasma, time 0.083-24 hrs, read-out: Ratio AUC
[29] = tested on: Rattus norvegicus; experiment: Neuroprotective activity in MCAO-induced brain damage Sprague-Dawley rat model assessed as reduction in brain infarction size at 10 mg/kg, iv administered immediately after arterial occlusion measured after 24 hrs by TTC staining based analysis relative to control; assay type: functional; set-up: scale not given: the % may be the effect or the level left
[30] = target: CYP2C19 (Homo sapiens, UniProt P33261); experiment: Inhibition of CYP2C19 in human liver microsomes using S-mephenytoin as substrate at 10 uM preincubated for 5 min followed by NADPH addition measured after 120 mins by LC-MS/MS analysis relative to control; assay type: ADME, Microsome; conditions: probe S-mephenytoin, time 125 min
CYP2C19, sequence (P33261 whole entry): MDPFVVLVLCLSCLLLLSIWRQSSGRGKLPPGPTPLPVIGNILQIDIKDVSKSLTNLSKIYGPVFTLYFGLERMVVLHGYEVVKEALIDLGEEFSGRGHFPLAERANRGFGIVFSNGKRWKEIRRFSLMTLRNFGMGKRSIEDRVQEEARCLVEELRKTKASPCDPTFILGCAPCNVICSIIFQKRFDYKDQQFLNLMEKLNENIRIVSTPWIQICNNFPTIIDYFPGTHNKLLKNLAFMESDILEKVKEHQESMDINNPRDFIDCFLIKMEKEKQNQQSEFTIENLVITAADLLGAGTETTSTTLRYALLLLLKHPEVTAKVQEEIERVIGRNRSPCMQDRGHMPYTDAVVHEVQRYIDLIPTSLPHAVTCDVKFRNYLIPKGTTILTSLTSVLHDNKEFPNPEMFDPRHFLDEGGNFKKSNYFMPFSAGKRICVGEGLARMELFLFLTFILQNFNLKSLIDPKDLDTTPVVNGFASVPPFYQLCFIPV

P2Y purinoceptor 1, sequence (P49651 whole entry): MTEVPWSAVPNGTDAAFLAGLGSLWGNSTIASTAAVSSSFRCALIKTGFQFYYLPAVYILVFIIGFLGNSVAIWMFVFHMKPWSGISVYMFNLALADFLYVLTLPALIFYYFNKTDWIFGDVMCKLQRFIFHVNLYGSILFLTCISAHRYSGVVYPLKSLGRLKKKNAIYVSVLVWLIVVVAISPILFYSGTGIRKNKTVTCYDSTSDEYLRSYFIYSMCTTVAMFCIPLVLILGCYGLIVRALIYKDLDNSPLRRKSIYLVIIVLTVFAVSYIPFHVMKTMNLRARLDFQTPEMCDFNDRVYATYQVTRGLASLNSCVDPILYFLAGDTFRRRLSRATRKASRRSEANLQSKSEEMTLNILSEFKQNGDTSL
P2Y purinoceptor 1 (Rattus norvegicus), sequence (P49651 whole entry): as above
CYP3A4, sequence (P08684 whole entry): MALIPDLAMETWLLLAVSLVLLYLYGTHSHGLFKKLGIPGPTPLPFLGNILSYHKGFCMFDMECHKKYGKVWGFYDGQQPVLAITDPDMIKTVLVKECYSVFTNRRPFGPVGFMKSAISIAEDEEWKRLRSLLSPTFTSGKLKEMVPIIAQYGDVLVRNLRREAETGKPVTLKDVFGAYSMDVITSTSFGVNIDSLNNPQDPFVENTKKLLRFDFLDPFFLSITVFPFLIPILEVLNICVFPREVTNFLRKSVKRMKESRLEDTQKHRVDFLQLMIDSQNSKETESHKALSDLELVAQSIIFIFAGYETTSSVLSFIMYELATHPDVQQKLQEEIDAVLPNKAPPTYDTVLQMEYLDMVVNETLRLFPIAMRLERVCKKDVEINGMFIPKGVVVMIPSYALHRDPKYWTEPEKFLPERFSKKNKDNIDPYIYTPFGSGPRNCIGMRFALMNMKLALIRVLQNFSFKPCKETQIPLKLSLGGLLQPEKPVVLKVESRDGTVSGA
P2Y purinoceptor 12 (Rattus norvegicus), sequence (Q9EPX4 whole entry): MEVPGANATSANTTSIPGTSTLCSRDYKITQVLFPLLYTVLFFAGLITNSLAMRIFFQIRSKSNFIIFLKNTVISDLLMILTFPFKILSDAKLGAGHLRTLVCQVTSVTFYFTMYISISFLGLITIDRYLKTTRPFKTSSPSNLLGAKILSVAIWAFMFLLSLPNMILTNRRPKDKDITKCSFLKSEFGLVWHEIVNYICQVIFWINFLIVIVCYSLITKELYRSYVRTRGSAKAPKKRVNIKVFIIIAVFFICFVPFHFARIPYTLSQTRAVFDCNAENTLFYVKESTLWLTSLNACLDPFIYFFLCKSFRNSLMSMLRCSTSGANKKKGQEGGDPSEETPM

| Structure (SMILES) | AUC [1] [µg·h/g] | Activity [2] | AUC [3] [ng·h/mL] | half-life [4] [min] | Activity [5] | Activity [6] | inhibition in vivo at 10 mg/kg [7] [%] | Activity [8] | Activity [9] [%] | Activity [10] | bioavailability [11] [%] | clearance [12] [mL/min/kg] | IC50 [13] [nM] | CL/F [14] [mL/min/kg] | Activity [15] [%] | Activity [17] [%] | Activity [18] [U/ml] | IC50 [19] [nM] | AUC [20] [µg·h/g] | inhibition in vivo at 10 mg/kg [21] [%] | further results |
| --- | --- | --- | --- | --- | --- | --- | --- | --- | --- | --- | --- | --- | --- | --- | --- | --- | --- | --- | --- | --- | --- |
| N#Cc1cccc(Oc2nc(-c3cccc(C#N)c3)ncc2C(=O)O)c1 | 18.55 | Active | 5360 | 38.5 | Dose-dependent-effect; Outperformed Edaravone And Hnw001 At 10 Mg/Kg | Active | 66 | Dose-dependent-effect; Outperformed Edaravone And Hnw001 At 10 Mg/Kg | 29.3 | Active | 4.1 | 7 | 2460 | 169 | 50.6 | 32 | 591.5 | 500 | 12.81 | 37.2 | AUC ([16]; po, 10 mg/kg, 24 h): 986 ng·h/mL; Vd [22]: 0.404 L/kg; remaining at 3 h, 1 µM [23]: 71.5%; inhibition at 2 h, 10 µM [24]: 51.7%; Activity [25]: Dose-dependent-effect; Activity Comparable To Hnw001, Bptu, Edaravone At 10 Mg/Kg; IC50 [26]: 3630 nM; inhibition [27]: 29.3%; Kp [28]: 2.39; Activity [29]: 74.2%; inhibition at 2 h, 10 µM [30]: 9.7% |
| N#Cc1cccc(-c2nc(C(F)F)c(C(=O)O)n2OCc2csc(N)n2)c1 | 1.02 | Active | 650 | 14.9 | Dose-dependent-effect; Outperformed Edaravone And Hnw001 At 10 Mg/Kg | Active | 54.5 | Dose-dependent-effect; Outperformed Edaravone And Hnw001 At 10 Mg/Kg | 25.6 | Active | 0.31 | 14.6 | 2200 | 4630 | 45.9 | 32 | 645.4 | 490 | 0.7 | 38.8 | AUC(0-inf) ([16]; male, Sprague-Dawley): 36 ng·h/mL; Vd [22]: 0.338 L/kg; remaining at 3 h, 1 µM [23]: 99.4%; inhibition at 2 h, 10 µM [24]: 55.7%; Activity [25]: Dose-dependent-effect; Activity Comparable To Hnw001, Bptu, Edaravone At 10 Mg/Kg; IC50 [26]: 3350 nM; inhibition [27]: 18.4%; Kp [28]: 1.08; Activity [29]: 51.5%; inhibition at 2 h, 10 µM [30]: 27.4% |
